Data on six compounds can be found in patent publication US20260028352A1, “MACROCYCLIC IMIDAZO [1,2-B] PYRIDAZINE DERIVATIVE, PREPARATION METHOD THEREFOR, AND USE THEREOF” (SUZHOU LANGRUI BIOPHARMACEUTICAL CO., LTD., priority 2022, published 2026).

For data set [1] the following is noted: ether bond.
In data set [2] the target is TRKA^WT kinase (Homo sapiens (Human), UniProt P04629). Description: Inhibitory activity against TRKA WT kinase (Caliper mobility shift). The note with it: in vitro kinase assay. The format is biochemical. An outline of the steps: (§1)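 Kinase preincubated 10 min at room temperature with compound (10-point 3-fold series from 1000 nM), then reaction started with ATP and Kinase Substrate 22. Substrate conversion read by Caliper mobility shift; IC50 from variable-slope log(inhibitor)–response fit of % inhibition versus no-enzyme and no-compound controls.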

Data set [3] concerns the target TRKA^F589L kinase (Homo sapiens (Human), UniProt P04629, F589L). The data set is described as follows: Inhibitory activity against TRKA(F589L) kinase (Caliper mobility shift). The note with it: in vitro kinase assay. The format is biochemical. The method in brief: as §1
Data set [4] relates to Ba/F3-TPM3-NTRK1-G667C cells. Description: Growth inhibition of Ba/F3-TPM3-NTRK1-G667C cells (Cell Titer-Glo). The format is cell-based. The following applies: for IC50: 72 hours, CTG, read-out: inhibitory activity IC50 Ba/F3-TPM3-NTRK1-G667C. The method in brief: (§2)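 Ba/F3 cells were exposed for 72 hours to serially DMSO-diluted compound at a top final concentration of 10 μM. Viability was read by Cell Titer-Glo luminescence after the plate equilibrated 30 min at room temperature and was then shaken 1 hour in the dark at room temperature.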
A general note: In ATP-based viability assays light output follows the ATP content of the culture.

Data set [5] concerns Ba/F3-TPM3-NTRK1-G595R cells. The data set is described as follows: Growth inhibition of Ba/F3-TPM3-NTRK1-G595R cells (Cell Titer-Glo). The format is cell-based. The following applies: 72 hours, CTG; read-out: inhibitory activity IC50 Ba/F3-TPM3-NTRK1-G595R. An outline of the steps: as §2
Data set [6] deals with Ba/F3-TPM3-NTRK1-WT cells. The data set is described as follows: Growth inhibition of Ba/F3-TPM3-NTRK1-WT cells (Cell Titer-Glo). The note with it: 72 hours, CTG; read-out: inhibitory activity IC50 Ba/F3-TPM3-NTRK1-WT. It is filed as cell-based. The method in brief: as §2

Where two headings read alike, the source gives them in different places.

Chain of TRKA^WT kinase (P04629 33-796): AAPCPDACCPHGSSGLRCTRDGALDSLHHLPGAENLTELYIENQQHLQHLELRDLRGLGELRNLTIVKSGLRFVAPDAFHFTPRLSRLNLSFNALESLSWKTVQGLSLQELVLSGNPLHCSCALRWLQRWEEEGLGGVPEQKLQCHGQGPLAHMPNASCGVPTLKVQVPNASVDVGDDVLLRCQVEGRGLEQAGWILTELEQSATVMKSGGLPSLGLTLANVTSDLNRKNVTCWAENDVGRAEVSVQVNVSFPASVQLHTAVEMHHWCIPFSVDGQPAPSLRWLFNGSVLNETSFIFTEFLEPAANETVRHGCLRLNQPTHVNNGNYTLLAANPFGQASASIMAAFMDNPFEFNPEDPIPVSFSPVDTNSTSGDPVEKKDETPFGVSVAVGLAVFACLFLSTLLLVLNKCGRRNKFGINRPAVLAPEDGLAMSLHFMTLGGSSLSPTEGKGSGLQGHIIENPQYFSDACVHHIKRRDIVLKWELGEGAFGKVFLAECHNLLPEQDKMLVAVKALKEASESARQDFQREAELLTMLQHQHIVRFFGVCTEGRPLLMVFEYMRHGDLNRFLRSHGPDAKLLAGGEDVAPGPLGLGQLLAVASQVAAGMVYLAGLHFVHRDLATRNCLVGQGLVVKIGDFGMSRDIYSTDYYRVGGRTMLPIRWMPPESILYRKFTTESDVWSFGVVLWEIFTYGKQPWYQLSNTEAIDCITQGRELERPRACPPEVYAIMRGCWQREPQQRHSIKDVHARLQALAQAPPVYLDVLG
Chain of TRKA^F589L kinase (P04629 33-796 F589L): as the sequence (P04629 33-796) above, with F557L counted along it

`CC1Nc2ccc3ncc(n3n2)-c2cc(ccn2)COc2c(F)cc(F)cc21` (stereo not shown) [Example I-2, (E)-5^4,5^6-difluoro-6-methyl-4-oxa-7-aza-1(3,6)-imidazo[1,2-b]pyridazine-2(2,4)-pyridina-5(1,2)-benzenacycloheptaphane] had a ring closure, isolated yield in data set [1] (from CC(Nc1ccc2ncc(-c3cc(CO)ccn3)n2n1)c1cc(F)cc(F)c1O, 13-membered ring, SOCl2, K2CO3, DCM/DMF, 15.2 mM, 90.0 °C, 1.5 h, 2 steps) of 11.2%. Besides, the IC50 stood at 2.59 nM in data set [2]; 6.2 nM in data set [3]; 32.5 nM in data set [4]; 245 nM in data set [5]; 24.8 nM in data set [6]. Also, the “inhibitory ability compared with TPX-0005” value in data set [4] (comparison in words) was “stronger than that of compound TPX-0005”.
For `CC1Nc2ccc3ncc(n3n2)-c2cc(ccn2)COc2ccccc21` (stereo not shown) [Example I-3, (E)-6-methyl-4-oxa-7-aza-1(3,6)-imidazo[1,2-b]pyridazine-2(2,4)-pyridine-5(1,2)-benzenacycloheptaphane], in data set [1] (from CC(Nc1ccc2ncc(-c3cc(CO)ccn3)n2n1)c1ccccc1O, 13-membered ring, SOCl2, K2CO3, DCM/DMF, 11.0 mM, 90.0 °C, 2.0 h, 2 steps), the ring closure, isolated yield came out at 39.2%. For the same compound, the IC50 in data set [2] was found to be 5.9 nM; in data set [3], 7.1 nM; in data set [4], 526 nM; in data set [5], 527 nM; in data set [6], 17 nM.
With `Fc1ccc2c(c1)CNc1ccc3ncc(n3n1)-c1cc(ccn1)CO2` [Example I-5, (E)-5^4-fluoro-4-oxa-7-aza-1(3,6)-imidazo[1,2-b]pyridazina-2(2,4)-pyridina-5(1,2)-benzenacycloheptaphane], the ring closure, isolated yield in data set [1] (from OCc1ccnc(-c2cnc3ccc(NCc4cc(F)ccc4O)nn23)c1, 13-membered ring, SOCl2, K2CO3, DCM/DMF, 20.3 mM, 90.0 °C, 2.0 h, 2 steps) is 11.6%. Also, the IC50 in data set [2] was 1.36 nM; in data set [3], below 5 nM; in data set [4], 94 nM; in data set [5] it was 91.5 nM; in data set [6], 7.94 nM.
In data set [1] (from OCc1ccnc(-c2cnc3ccc(NCc4ccccc4O)nn23)c1, 13-membered ring, SOCl2, K2CO3, DCM/DMF, 22.8 mM, 90.0 °C, 2.0 h, 2 steps), `c1ccc2c(c1)CNc1ccc3ncc(n3n1)-c1cc(ccn1)CO2` [Example I-6, (E)-4-oxa-7-aza-1(3,6)-imidazo[1,2-b]pyridazina-2(2,4)-pyridina-5(1,2)-benzenacycloheptaphane] showed a ring closure, isolated yield of 13.6%. Moreover, the IC50 amounted to 2.76 nM in data set [2]; 6.1 nM in data set [3]; 526 nM in data set [4]; 527 nM in data set [5]; 18 nM in data set [6].
Consider `CC1Nc2ccc3ncc(n3n2)-c2cncc(c2)COc2ccc(F)cc21` (stereo not shown) [Example I-7, (E)-5^4-fluoro-6-methyl-4-oxa-7-aza-1(3,6)-imidazo[1,2-b]pyridazine-2(3,5)-pyridina-5(1,2)-benzenacycloheptaphane], for which, in data set [1] (from CC(Nc1ccc2ncc(-c3cncc(CO)c3)n2n1)c1cc(F)ccc1O, 13-membered ring, SOCl2, K2CO3, DCM/DMF, 15.7 mM, 90.0 °C, 2.0 h, 2 steps), the ring closure, isolated yield stood at 22.6%. Further, the IC50 was below 3 nM in data set [2]; below 5 nM in data set [3]; 220 nM in data set [4]; 198 nM in data set [5]; 2.8 nM in data set [6].
For the compound `c1ccc2c(c1)CNc1ccc3ncc(n3n1)-c1cc(ccn1)CCO2` [Example I-8, (E)-6-oxa-3-aza-2(3,6)-imidazo[1,2-b]pyridazina-1(2,4)-pyridina-5(1,2)-benzenacyclooctaphane], the ring closure, isolated yield in data set [1] (from OCCc1ccnc(-c2cnc3ccc(NCc4ccccc4O)nn23)c1, 14-membered ring, PPh3/DIAD, THF, 16.6 mM, 60.0 °C, 2.0 h) is 34%. Besides, the IC50 was 2.46 nM in data set [2]; below 5 nM in data set [3]; 562 nM in data set [4]; 562 nM in data set [5]; 3.4 nM in data set [6].
